Patent publication US8623870B2, “Pyridazinone derivatives” (Merck Patent GmbH, priority 2009, dated 2014)

Columns and labels:
Met kinase [1] = biological target: T1, Met kinase (Homo sapiens, UniProt P08581); assay: Met kinase inhibition (cell); assay type: cell-based
Target sequence in this assay (P08581 25-1390): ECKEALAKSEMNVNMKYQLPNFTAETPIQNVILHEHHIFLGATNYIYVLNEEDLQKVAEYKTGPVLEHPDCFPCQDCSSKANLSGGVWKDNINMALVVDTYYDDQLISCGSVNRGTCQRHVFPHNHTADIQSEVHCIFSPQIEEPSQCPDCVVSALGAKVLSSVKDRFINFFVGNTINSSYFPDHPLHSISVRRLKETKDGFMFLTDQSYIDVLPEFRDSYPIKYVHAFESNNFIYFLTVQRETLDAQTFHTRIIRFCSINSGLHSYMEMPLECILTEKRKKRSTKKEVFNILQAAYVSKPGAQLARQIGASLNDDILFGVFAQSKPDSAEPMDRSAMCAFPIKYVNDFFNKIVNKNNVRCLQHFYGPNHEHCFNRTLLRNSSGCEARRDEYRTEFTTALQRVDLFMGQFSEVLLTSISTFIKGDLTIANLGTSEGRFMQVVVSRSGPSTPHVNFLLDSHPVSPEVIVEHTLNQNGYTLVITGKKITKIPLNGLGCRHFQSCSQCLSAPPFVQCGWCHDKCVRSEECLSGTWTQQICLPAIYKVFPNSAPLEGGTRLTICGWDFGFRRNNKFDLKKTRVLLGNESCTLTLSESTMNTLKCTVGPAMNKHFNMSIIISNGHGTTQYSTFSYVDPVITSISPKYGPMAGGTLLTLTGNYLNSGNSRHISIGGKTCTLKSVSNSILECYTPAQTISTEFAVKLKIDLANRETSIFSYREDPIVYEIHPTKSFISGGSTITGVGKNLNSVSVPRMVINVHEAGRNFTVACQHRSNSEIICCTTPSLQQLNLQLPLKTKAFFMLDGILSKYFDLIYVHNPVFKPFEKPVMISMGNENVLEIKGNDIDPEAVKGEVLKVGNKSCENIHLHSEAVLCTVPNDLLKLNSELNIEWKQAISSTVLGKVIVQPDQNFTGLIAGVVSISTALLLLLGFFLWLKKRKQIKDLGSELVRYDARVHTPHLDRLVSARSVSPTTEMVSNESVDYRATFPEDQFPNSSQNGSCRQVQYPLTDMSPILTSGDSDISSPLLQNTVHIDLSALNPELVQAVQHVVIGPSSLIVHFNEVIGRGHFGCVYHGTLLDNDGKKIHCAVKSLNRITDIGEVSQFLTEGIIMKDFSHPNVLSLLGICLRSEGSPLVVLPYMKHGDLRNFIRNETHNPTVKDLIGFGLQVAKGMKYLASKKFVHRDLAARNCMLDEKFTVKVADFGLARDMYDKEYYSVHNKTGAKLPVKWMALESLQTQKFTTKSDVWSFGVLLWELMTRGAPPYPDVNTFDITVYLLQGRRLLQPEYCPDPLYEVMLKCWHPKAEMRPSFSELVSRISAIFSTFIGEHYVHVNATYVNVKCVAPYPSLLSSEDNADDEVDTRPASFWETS

Met kinase [2] = biological target: T1, Met kinase; assay: Met kinase inhibition, flashplate method (enzyme); assay type: biochemical; parameters: 6His (N); purchased Upstate 14-526; host or cells: Sf21 insect cells (S. frugiperda), baculovirus
From the text: According to the manufacturer's data (Met, active, upstate, catalogue No. 14-526), Met kinase is expressed for the purposes of protein production in insect cells (Sf21; S. frugiperda) and subsequent affinity-chromatographic purification as “N-terminal 6His-tagged” recombinant human protein in a baculovirus expression vector.
The test plates used are 96-well Flashplate® microtitre plates from Perkin Elmer (Cat. No. SMP200). The components of the kinase reaction described below are pipetted into the assay plate. The Met kinase and the substrate poly Ala-Glu-Lys-Tyr, (pAGLT, 6:2:5:1), are incubated for 3 hrs at room temperature with radioactively labelled ^33P-ATP in the presence and absence of test substances in a total volume of 100 μl. The reaction is terminated using 150 μl of a 60 mM EDTA solution. After incubation for a further 30 min at room temperature, the supernatants are filtered off with suction, and the wells are washed three times with 200 μl of 0.9% NaCl solution each time. The measurement of the bound radioactivity is carried out by means of a scintillation measuring instrument (Topcount NXT, Perkin-Elmer).
The full value used is the inhibitor-free kinase reaction. This should be approximately in the range 6000-9000 cpm. The pharmacological zero value used is staurosporin in a final concentration of 0.1 mM. The inhibitory values (IC50) are determined using the RS1_MTS program.
• 30 μl of assay buffer • 10 μl of substance to be tested in assay buffer with 10% of DMSO • 10 μl of ATP (final concentration 1 μM cold, 0.35 μCi of ^33P-ATP) • 50 μl of Met kinase/substrate mixture in assay buffer; • (10 ng of enzyme/well, 50 ng of pAGLT/well)
Assay Buffer: • 50 mM HEPES • 3 mM magnesium chloride • 3 μM sodium orthovanadate • 3 mM manganese(II) chloride • 1 mM dithiothreitol (DTT) • pH=7.5 (to be set using sodium hydroxide)
Stop Solution: • 60 mM Titriplex III (EDTA) • ^33P-ATP: Perkin-Elmer; • Met kinase: Upstate, Cat. No. 14-526, Stock 1 μg/10 μl; spec. activity 954 U/mg; • Poly-Ala-Glu-Lys-Tyr, 6:2:5:1: Sigma Cat. No. P1152 In-vivo Tests
Target sequence in this assay (P08581 974-1390 limits assumed): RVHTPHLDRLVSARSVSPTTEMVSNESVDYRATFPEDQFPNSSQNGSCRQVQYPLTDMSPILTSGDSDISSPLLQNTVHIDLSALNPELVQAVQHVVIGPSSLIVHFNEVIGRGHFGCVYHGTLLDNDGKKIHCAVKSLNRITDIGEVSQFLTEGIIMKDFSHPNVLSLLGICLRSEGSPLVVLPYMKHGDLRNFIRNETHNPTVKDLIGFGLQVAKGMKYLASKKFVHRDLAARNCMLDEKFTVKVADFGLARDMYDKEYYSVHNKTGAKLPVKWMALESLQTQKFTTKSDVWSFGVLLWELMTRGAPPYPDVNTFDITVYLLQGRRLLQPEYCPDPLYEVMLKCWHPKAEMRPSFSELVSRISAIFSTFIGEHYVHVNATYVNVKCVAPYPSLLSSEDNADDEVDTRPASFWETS

SMILES	IC50 (Met kinase [1])	IC50 (Met kinase [2])
O=c1ccc(-c2cc(F)cc(F)c2)nn1Cc1cccc(-c2noc(-c3ccco3)n2)c1 [Compound A9, 6-(3,5-difluorophenyl)-2-[3-(5-furan-2-yl-1,2,4-oxadiazol-3-yl)benzyl]-2H-pyridazin-3-one]	100 to 10000 nM	
O=c1ccc(-c2cc(F)cc(F)c2)nn1Cc1cccc(-c2ncc(-c3cnn(C4CCNCC4)c3)o2)c1 [Compound A6, 6-(3,5-difluorophenyl)-2-{3-[5-(1-piperidin-4-yl-1H-pyrazol-4-yl)oxazol-2-yl]benzyl}-2H-pyridazin-3-one]	1 to 100 nM	1 to 100 nM
Cn1cc(-c2nc(-c3cccc(Cn4nc(-c5cc(F)cc(F)c5)ccc4=O)c3)no2)cn1 [Compound A8, 6-(3,5-difluorophenyl)-2-{3-[5-(1-methyl-1H-pyrazol-4-yl)-1,2,4-oxadiazol-3-yl]benzyl}-2H-pyridazin-3-one]	1 to 100 nM	1 to 100 nM
O=c1ccc(-c2cccc(F)c2)nn1Cc1cccc(-c2ncc(-c3cnn(C4CCNCC4)c3)s2)c1 [Compound A2, 6-(3-fluorophenyl)-2-{3-[5-(1-piperidin-4-yl-1H-pyrazol-4-yl)thiazol-2-yl]benzyl}-2H-pyridazin-3-one]	1 to 100 nM	1 to 100 nM
Cc1ccc(-c2nc(-c3cccc(Cn4nc(-c5cc(F)cc(F)c5)ccc4=O)c3)no2)cn1 [Compound A10, 6-(3,5-difluorophenyl)-2-{3-[5-(6-methylpyridin-3-yl)-1,2,4-oxadiazol-3-yl]-benzyl}-2H-pyridazin-3-one]	1 to 100 nM	1 to 100 nM
O=c1ccc(-c2cc(F)cc(F)c2)nn1Cc1cccc(-c2ncc(-c3cnn(C4CCNCC4)c3)s2)c1 [Compound A1, 6-(3,5-difluorophenyl)-2-{3-[5-(1-piperidin-4-yl-1H-pyrazol-4-yl)thiazol-2-yl]benzyl}-2H-pyridazin-3-one]	1 to 100 nM	1 to 100 nM
